Measured values published in ChEMBL document CHEMBL1909046, “DrugMatrix in vitro pharmacology data”.

Key:
[1] = target: T1, Alpha-1A adrenergic receptor (Rattus norvegicus, UniProt P43140); experiment: DRUGMATRIX: Alpha-1A adrenergic receptor radioligand binding (ligand: prazosin); assay type: cell membranes, Wistar, Submaxillary gland, Membrane; details: Not Active = under 50% inhibition at 10 µM
T1 sequence (P43140 whole entry): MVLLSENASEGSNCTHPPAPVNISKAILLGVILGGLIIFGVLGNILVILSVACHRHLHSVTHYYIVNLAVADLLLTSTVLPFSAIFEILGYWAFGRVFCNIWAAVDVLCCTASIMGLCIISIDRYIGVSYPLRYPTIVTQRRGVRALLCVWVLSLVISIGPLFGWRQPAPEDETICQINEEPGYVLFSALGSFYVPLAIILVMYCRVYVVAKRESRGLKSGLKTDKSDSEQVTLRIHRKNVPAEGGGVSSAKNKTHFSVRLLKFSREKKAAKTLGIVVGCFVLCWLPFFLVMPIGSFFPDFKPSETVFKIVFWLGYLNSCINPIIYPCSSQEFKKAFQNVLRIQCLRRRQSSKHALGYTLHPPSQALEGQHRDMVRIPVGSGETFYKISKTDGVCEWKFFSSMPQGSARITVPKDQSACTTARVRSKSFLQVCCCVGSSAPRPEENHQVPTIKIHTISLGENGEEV

[2] = target: T2, Substance-K receptor (Homo sapiens, UniProt P21452); assay type: cell membranes, CHO, Membrane; details: cho; also: in other assays of this panel Not Active means under 50% inhibition at 10 µM
T2 sequence (P21452 whole entry): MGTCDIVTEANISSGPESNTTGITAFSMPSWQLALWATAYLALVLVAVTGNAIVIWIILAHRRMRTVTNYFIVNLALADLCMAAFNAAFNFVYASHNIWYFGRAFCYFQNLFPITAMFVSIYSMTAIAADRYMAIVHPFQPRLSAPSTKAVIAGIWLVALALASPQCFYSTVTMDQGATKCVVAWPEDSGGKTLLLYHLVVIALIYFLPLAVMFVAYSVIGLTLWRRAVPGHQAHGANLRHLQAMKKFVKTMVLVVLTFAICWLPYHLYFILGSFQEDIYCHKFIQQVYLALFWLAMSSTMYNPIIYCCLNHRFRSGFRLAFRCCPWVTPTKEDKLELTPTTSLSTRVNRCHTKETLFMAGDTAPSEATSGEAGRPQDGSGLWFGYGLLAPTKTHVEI

[3] = target: Insulin receptor (Rattus norvegicus, UniProt P15127); assay type: cell membranes, Wistar, Liver, Membrane; also: in other assays of this panel Not Active means under 50% inhibition at 10 µM
Chain of Insulin receptor (P15127 27-759 limits assumed): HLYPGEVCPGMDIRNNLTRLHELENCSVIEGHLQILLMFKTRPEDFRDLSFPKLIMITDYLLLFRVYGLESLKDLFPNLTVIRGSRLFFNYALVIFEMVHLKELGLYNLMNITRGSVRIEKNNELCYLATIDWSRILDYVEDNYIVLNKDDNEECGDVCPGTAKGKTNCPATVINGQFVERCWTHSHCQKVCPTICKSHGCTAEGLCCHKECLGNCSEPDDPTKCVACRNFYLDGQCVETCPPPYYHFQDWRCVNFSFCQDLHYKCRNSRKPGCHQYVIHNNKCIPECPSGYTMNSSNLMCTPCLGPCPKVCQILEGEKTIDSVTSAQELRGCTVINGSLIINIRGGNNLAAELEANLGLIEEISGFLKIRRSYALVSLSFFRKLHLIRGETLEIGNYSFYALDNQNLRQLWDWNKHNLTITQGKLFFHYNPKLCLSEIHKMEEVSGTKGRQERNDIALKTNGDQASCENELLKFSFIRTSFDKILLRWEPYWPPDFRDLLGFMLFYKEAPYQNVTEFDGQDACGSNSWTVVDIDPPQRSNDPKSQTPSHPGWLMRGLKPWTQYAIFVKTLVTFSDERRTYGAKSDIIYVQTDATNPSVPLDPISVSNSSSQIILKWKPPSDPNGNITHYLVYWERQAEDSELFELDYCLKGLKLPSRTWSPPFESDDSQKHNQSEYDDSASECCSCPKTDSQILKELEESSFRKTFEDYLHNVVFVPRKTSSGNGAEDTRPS
Chain of Insulin receptor (P15127 764-1383 limits assumed): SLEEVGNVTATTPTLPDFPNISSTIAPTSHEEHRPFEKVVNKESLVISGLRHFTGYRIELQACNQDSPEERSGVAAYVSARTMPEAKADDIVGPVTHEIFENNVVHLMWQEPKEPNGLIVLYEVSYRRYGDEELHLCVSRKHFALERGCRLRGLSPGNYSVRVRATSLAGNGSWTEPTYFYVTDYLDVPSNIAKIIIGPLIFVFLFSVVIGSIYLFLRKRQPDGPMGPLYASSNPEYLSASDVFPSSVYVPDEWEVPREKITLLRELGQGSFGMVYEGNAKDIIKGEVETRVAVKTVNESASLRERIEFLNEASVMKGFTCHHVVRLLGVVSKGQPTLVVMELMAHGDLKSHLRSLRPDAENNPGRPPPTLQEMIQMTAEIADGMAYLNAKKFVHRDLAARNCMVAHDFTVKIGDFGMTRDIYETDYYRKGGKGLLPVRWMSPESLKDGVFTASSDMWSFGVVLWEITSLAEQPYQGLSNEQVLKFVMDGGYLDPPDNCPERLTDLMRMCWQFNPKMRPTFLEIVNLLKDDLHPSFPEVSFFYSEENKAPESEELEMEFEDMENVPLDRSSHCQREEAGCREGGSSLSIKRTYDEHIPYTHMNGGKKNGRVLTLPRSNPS

[4] = target: Melanocortin receptor 3 (Homo sapiens, UniProt P41968); assay type: cell membranes, HEK293, Membrane; details: hek293; also: in other assays of this panel Not Active means under 50% inhibition at 10 µM
Chain of Melanocortin receptor 3 (P41968 whole entry): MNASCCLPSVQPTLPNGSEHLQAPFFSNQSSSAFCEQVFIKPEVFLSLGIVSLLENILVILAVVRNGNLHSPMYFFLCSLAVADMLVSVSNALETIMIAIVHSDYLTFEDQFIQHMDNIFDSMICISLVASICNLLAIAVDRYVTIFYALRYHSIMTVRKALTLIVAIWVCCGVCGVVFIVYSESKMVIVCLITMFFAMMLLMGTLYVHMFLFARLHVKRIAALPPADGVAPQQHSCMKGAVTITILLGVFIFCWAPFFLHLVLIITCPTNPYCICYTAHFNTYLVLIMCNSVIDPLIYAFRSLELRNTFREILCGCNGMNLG

[5] = DRUGMATRIX: Nicotinic Acetylcholine radioligand binding (ligand: [125I] Epibatidine); assay type: cell membranes, Membrane; details: imr-32; Not Active = under 50% inhibition at 10 µM
[6] = target: Mitogen-activated protein kinase 14 (Homo sapiens, UniProt Q16539); design: species or system Escherichia coli;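 also: inhibition of p38alpha enzyme activity in a biochemical kinase assay, with myelin basic protein serving as substrate; in other assays of this panel Not Active means under 50% inhibition at 10 µM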
Chain of Mitogen-activated protein kinase 14 (Q16539 whole entry): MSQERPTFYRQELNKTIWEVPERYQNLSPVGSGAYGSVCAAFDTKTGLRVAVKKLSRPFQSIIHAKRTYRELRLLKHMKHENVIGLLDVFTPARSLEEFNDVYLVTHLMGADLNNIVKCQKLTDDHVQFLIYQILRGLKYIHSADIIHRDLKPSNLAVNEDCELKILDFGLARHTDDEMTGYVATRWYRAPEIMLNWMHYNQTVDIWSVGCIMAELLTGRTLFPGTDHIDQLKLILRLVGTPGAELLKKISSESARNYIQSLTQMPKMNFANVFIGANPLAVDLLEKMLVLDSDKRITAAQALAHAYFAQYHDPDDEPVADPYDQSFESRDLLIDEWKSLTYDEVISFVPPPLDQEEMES

C1CCN2C[C@@H]3C[C@@H](CN4CCCC[C@@H]34)[C@H]2C1 [SPARTEINE]
Not Active: IC50 [1] | IC50 [2] | IC50 [3] | IC50 [4] | IC50 [5] | Ki [5] | IC50 [6]

CO[C@@H]1[C@@H](OC)[C@H](C)[C@@](O)(CC(=O)O)O[C@H]1[C@H](C)[C@H]1O[C@@]2(CC[C@@](C)([C@H]3CC[C@@](C)([C@@H]4O[C@@H]([C@H]5O[C@](C)(O)[C@H](C)C[C@@H]5C)C[C@@H]4O[C@@H]4C[C@H](OC)[C@@H](OC)[C@H](C)O4)O3)O2)C[C@H](O)[C@H]1C.N [MADURAMICIN]
Not Active: IC50 [1] | IC50 [2] | IC50 [3] | IC50 [4] | IC50 [5] | Ki [5] | IC50 [6]

CC(N)C12CC3CC(CC(C3)C1)C2 (stereo not drawn) [RIMANTADINE]
Not Active: IC50 [1] | IC50 [2] | IC50 [3] | IC50 [4] | IC50 [5] | Ki [5] | IC50 [6]

CCN(CC)C(=S)SSC(=S)N(CC)CC
Not Active: IC50 [1] | IC50 [2] | IC50 [3] | IC50 [4] | IC50 [5] | Ki [5] | IC50 [6]
